What was measured:
[1] = Agonist activity at beta-adrenoceptor in guinea pig atria assessed as cardiac stimulant activity by measuring change in rate of contraction of right atrial muscle at 56 uM; format: tissue-based, Cavia porcellus, Cardiac atrium
Cavia porcellus [2] = species on record: Cavia porcellus; experiment: Agonist activity at beta-adrenoceptor in guinea pig trachea assessed as relaxation of spontaneously contracted tracheal smooth muscle; format: tissue-based
Cavia porcellus [3] = species on record: Cavia porcellus; experiment: Agonist activity at beta-adrenoceptor in guinea pig trachea assessed as relaxation of spontaneously contracted tracheal smooth muscle at 11 uM; format: tissue-based; parameters: scale not given: the % may be the effect or the level left
[4] = Separation ratio of ED25 at beta-adrenoceptor in guinea pig atria to ED50 for beta-adrenoceptor in guinea pig trachea; parameters: species or system Cavia porcellus
[5] = Intrinsic activity at beta-adrenoceptor in guinea pig atria assessed as cardiac stimulant activity by measuring change in rate of contraction of right atrial muscle relative to isoproterenol; format: ADME, tissue-based, Cavia porcellus, Cardiac atrium
[6] = Agonist activity at beta-adrenoceptor in guinea pig atria assessed as cardiac stimulant activity by measuring change in rate of contraction of right atrial muscle; format: tissue-based, Cavia porcellus, Cardiac atrium
Cavia porcellus [7] = species on record: Cavia porcellus; experiment: Intrinsic activity at beta-adrenoceptor in guinea pig trachea assessed as relaxation of spontaneously contracted tracheal smooth muscle relative to papaverine; format: tissue-based
[8] = Agonist activity at beta-adrenoceptor in guinea pig atria assessed as cardiac stimulant activity by measuring change in rate of contraction of right atrial muscle at 0.12 mM; format: tissue-based, Cavia porcellus, Cardiac atrium; conditions: 120 µM
[9] = Agonist activity at beta-adrenoceptor in guinea pig atria assessed as cardiac stimulant activity by measuring change in rate of contraction of right atrial muscle at 14 uM; format: tissue-based, Cavia porcellus, Cardiac atrium
Cavia porcellus [10] = species on record: Cavia porcellus; experiment: Agonist activity at beta-adrenoceptor in guinea pig trachea assessed as relaxation of spontaneously contracted tracheal smooth muscle at 12 uM; format: tissue-based; parameters: scale not given: the % may be the effect or the level left
[11] = Agonist activity at beta-adrenoceptor in guinea pig atria assessed as cardiac stimulant activity by measuring change in rate of contraction of right atrial muscle at 0.11 mM; format: tissue-based, Cavia porcellus, Cardiac atrium; conditions: 110 µM
[12] = Agonist activity at beta-adrenoceptor in guinea pig atria assessed as cardiac stimulant activity by measuring change in rate of contraction of right atrial muscle at 92 uM; format: tissue-based, Cavia porcellus, Cardiac atrium

SMILES | Activity [1] [%] | Ratio [5] | ED25 [6] | Activity [8] [%] | Activity [9] [%] | Activity [11] [%] | Activity [12] [%] | ED50 (Cavia porcellus [2]) | Activity (Cavia porcellus [3]) [%] | Ratio [4] | Ratio (Cavia porcellus [7]) | Activity (Cavia porcellus [10]) [%]
CC(C)(C)NCC(O)c1ccc(O)c(C(C)(C)O)c1 (configuration not stated) | 8 |  |  |  |  |  |  | 1.1 ×10⁻⁵ M | 30 |  |  | 
CC(C)(C)NCC(O)c1ccc(O)c(C(O)CO)c1 (configuration not stated) |  | 0.3 | 3 ×10⁻⁵ M |  |  |  |  | 9.9 ×10⁻⁸ M |  | 303 | 1 | 
COCC(O)c1cc(C(O)CNC(C)(C)C)ccc1O (configuration not stated) |  |  | 1.2 ×10⁻⁴ M | 23 |  |  |  | 5.3 ×10⁻⁷ M |  | 236 | 0.9 | 
CC(C)(C)NCC(O)c1ccc(O)c(O)c1 (configuration not stated) [COLTEROL] |  | 1 | 7.1 nM |  |  |  |  | 1.3 nM |  | 5.5 | 1 | 
CC(O)c1cc(C(O)CNC(C)(C)C)ccc1O (configuration not stated) |  | 0.3 | 5200 nM |  |  |  |  | 1.8 ×10⁻⁸ M |  | 289 | 1 | 
CC(C)(C)NCC(O)c1ccc(O)c(C(O)CNC(C)(C)C)c1 (configuration not stated) |  |  | 9.2 ×10⁻⁵ M |  |  |  | 14 | 1.5 ×10⁻⁵ M |  | >6 | 0.9 | 
CC(C)NCC(O)c1ccc(O)c(O)c1 (configuration not stated) [ISOPROTERENOL] |  |  |  |  |  |  |  | 7.1 nM |  |  | 1 | 

Second part, led by results:

Activity [1] [%] | Ratio [5] | ED25 [6] | Activity [8] [%] | Activity [9] [%] | Activity [11] [%] | Activity [12] [%] | SMILES | ED50 (Cavia porcellus [2]) | Activity (Cavia porcellus [3]) [%] | Ratio [4] | Ratio (Cavia porcellus [7]) | Activity (Cavia porcellus [10]) [%]
 |  | 1.4 ×10⁻⁵ M |  | 0 |  |  | CC(C)(C)NCC(O)c1ccc(O)c(C(O)CS(C)(=O)=O)c1 (configuration not stated) | 1.2 ×10⁻⁵ M |  |  |  | 34
 |  |  |  |  | 0 |  | COC(CO)c1cc(C(O)CNC(C)(C)C)ccc1O (configuration not stated) | 3.4 ×10⁻⁷ M |  | >320 | 0.7 | 
 | 0.7 |  |  |  |  |  | CC(C)(C)NCC(O)c1ccc(O)c(CO)c1 (configuration not stated) [ALBUTEROL] | 1.1 ×10⁻⁸ M |  | 28 | 1 | 
